Laboratory results from patent US20140186329A1, “POLYPHENOL ANALOGS TO TREAT ISCHEMIA” (priority 2011, published 2014).
Like-named read-outs stand apart in the source and are kept apart here.

Key:
[1] = test system: HT22 cells; assay: In vitro ischemia assay (HT22 cell IAA assay, MTT); assay type: cell-based, mouse
Procedure: Cell viability was determined by a modified version of 3-(4,5-dimethylthiazol-2-yl)-2,5-diphenyl tetrazolium bromide (MTT) assay based on the standard procedure (Maher, et al., Brain Research. (2007), supra). Cells were seeded onto 96-well microtiter plates at a density of 5×10^3 cells per well. For the in vitro ischemia assay, the next day, the medium was replaced with DMEM supplemented with 7.5% DFCS and the cells were treated with 20 μM iodoacetic acid (IAA) alone or in the presence of the different derivatives. After 2 hr the medium in each well was aspirated and replaced with fresh medium without IAA but containing the derivatives. 20 hr later, the medium in each well was aspirated and replaced with fresh medium containing 2.5 μg/ml MTT. After 4 hr of incubation at 37° C., the cells were solubilized with 100 μl of a solution containing 50% dimethylformamide and 20% SDS (pH 4.7). The absorbance at 570 nm was measured on the following day with a microplate reader (Molecular Devices). Results were confirmed by visual inspection of the wells. Controls included compound alone to test for toxicity and compound with no cells to test for interference with the assay chemistry.
For a primary screen, an in vitro ischemia model in combination with the HT22 nerve cell line (Maher, et al., Brain Research. (2007) 1173, 117-125) was chosen. […] To induce ischemia in the HT22 cells we used iodoacetic acid (IAA), a well-known, irreversible inhibitor of the glycolytic enzyme glyceraldehyde 3-phosphate dehydrogenase (G3PDH) (Winkler, et al., Exp. Eye Res. (2003) 76, 715-723). IAA has been used in a number of other studies to induce ischemia in nerve cells (Reshef, et al., Neurosci. Lett. (1997) 238, 37-40; Sperling, et al., Neursci. Lett. (2003) 351, 137-140; Rego, et al., Neurochem. Res. (1999) 24, 351-358; Sigalov, et al., J. Mol. Neurosci. (2000) 15, 147-154; and Reiner, et al., Neurosci. Lett. (1990) 119, 175-178), including several recent screens for neuroprotective molecules (Biraboneye, et al., J. Med. Chem. (2009) 52 (14), 4358-4369; Biraboneye, et al., Chem. Med. Chem. (2010) 5 (1), 79-85). The changes following IAA treatment of neural cells are very similar to those seen in animal models of ischemic stroke (Lipton, et al., Physiol. Rev. (1999) 79, 1431-1568) and include alterations in membrane potential (Reiner, et al., Neurosci. Lett. (1990) 119, 175-178), breakdown of phospholipids (Taylor, et al., J. Pharmacol. Exp. Ther. (1996) 276, 1224-1231), loss of ATP (Winkler, et al., Exp. Eye Res. (2003) 76, 715-723; Sperling, et al., Neursci. Lett. (2003) 351, 137-140) and an increase in reactive oxygen species (ROS) (Taylor, et al., J. Pharmacol. Exp. Ther. (1996), supra; and Sperling, et al., Neursci. Lett. (2003) 351, 137-140).
(§1) Cell viability was determined after 24 hr by the MTT assay. The ability to maintain GSH (GSH) was determined by treating HT22 cells with different doses of each derivative (1-10 μM) in the presence of 5 mM glutamate. After 24 hr cell extracts were prepared and analyzed for total GSH. Fisetin (10 μM) was used as a positive control. The ability to induce PC12 cell differentiation (PC 12 diff' n) was determined by treating PC12 cells in N2 medium with different doses of each derivative (1-10 μM) for 24 hr. Differentiation was assessed by visual inspection with Fisetin (10 μM) as a positive control. Anti-inflammatory activity (microglia) was assessed in N9 microglial cells treated with bacterial lipopolysaccharide alone or in the presence different doses of each derivative (1-10 μM) for 24 hr. Fisetin was used as a positive control. TEAC values, a measure of direct antioxidant activity, were determined using the ABTS decolorization assay.
For rapid screening of chemical libraries, a mouse HT22 hippocampal cell death assay induced by addition of the compound iodoacetic acid (IAA) was used. IAA is a well-known, irreversible inhibitor of the glycolytic enzyme glyceraldehyde 3-phosphate dehydrogenase (G3PDH). […]

[2] = test system: HT22 cells; assay: Maintenance of total GSH in the presence of glutamate; assay type: cell-based, mouse; conditions: derivative 1-10 μM, 5 mM glutamate, 24 hr
Procedure: Total intracellular glutathione was determined by a chemical assay as described (Maher, P. et al., Free Radical Research. (2006) 40 (10), 1105-1111).
(§2) Three secondary screens allowed assessment of three key activities of Fisetin that are highly relevant to stroke, as well as other neurological disorders: maintenance of glutathione (GSH), the major endogenous cellular antioxidant, inhibition of LPS-induced microglial activation, an indicator of anti-inflammatory activity and PC 12 cell differentiation, a measure of neurotrophic activity. All of these activities are relevant to the nerve cell loss seen in stroke (Gelderblom, et al., Stroke. 2009, 40 (5), 1849-1857; Pandya, et al., Cent. Nerv. Syst. Agents. Med. Chem. (2011) April 27; Lewerenz, et al., J. Neurochem. (2010) 113 (2), 502-504). […] To assess GSH maintenance, total intracellular GSH levels after a 24 hr treatment with the compound both in the absence and presence of glutamate, an inducer of GSH loss and oxidative stress (Tan, et al., Curr. Top. Med. Chem. (2001) 1, 497-506; Maher, et al., Free Radical Research. (2006) 40 (10), 1105-1111) was measured. Inhibition of LPS-induced microglial activation was determined by treating N9 mouse microglial cells with LPS alone and in the presence of the compounds and assaying NO release into the medium 24 hr later (Zheng, et al., Int. Immunopharmacol. (2008) 8, (3), 484-494). PC12 cell differentiation was determined by treating PC12 cells with the compounds and looking at neurite outgrowth after 24 hr. In all cases, Fisetin was used as a positive control (Sagara, et al., J. Neurochem. (2004) 90, 1144-1155).
as §1

[3] = test system: PC12 cells; assay: PC12 cell differentiation (neurite outgrowth); assay type: cell-based; conditions: N2 medium, derivative 1-10 μM, 24 hr, visual inspection
Procedure: PC 12 cells in N2 medium were treated with the derivatives (1-10 μM) or Fisetin (10 μM) as a positive control for 24 hr at which time the cells were scored for the presence of neurites. PC12 cells produce neurites much more rapidly when treated in N2 medium than when treated in regular growth medium. For each treatment, 100 cells in each of three separate fields were counted. Cells were scored positive if one or more neurites>1 cell body diameter in length were observed.
as §2, §1

[4] = TEAC, ABTS decolorization assay; conditions: relative to Trolox
Procedure: TEAC values for the flavonoids were determined as described (Maher, P. et al., Free Radical Research. (2006), supra). Briefly, 250 μl of 2,2′-azinobis(3-ethylbenzothiazoline 6-sulfonate) (ABTS) treated overnight with potassium persulfate and diluted to an OD of ˜0.7 at 734 nm was added to 2.5 μl of a derivative solution in ethanol. The change in absorbance due to the reduction of the ABTS radical cation was measured at 734 nm for 4 min. To calculate the TEAC, the gradient of the plot of the percentage inhibition of absorbance vs. concentration for the derivative in question was divided by the gradient of the plot for Trolox.
as §1

[5] = Mus musculus, HT-22, HT22 cells, 20 μM IAA for 2 hr, viability after 24 hr by MTT, read-out: EC50 in vitro ischemia
[6] = HT22 cells, 20 μM IAA for 2 hr, viability after 24 hr by MTT
[7] = Mus musculus, HT-22, HT22 cells, 20 μM IAA, read-out: HT22 Cell IAA assay EC50

Structure (SMILES) | EC50 [1, 5] | fold enhancement of neuroprotective activity relative to CMS-027 ([1]; in vitro ischemia, HT22/IAA) | GSH (ability to maintain GSH) [2] | PC12 diff'n (ability to induce PC12 cell differentiation) [3] | TEAC [4] | EC50 in vitro ischemia (μM) [1, 6] | EC50 ([1]; HT22 cells, 20 μM IAA, read-out: HT22 Cell IAA assay EC50) | EC50 [1, 7] | Emax ([1]; Mus musculus, HT-22, HT22 Cell IAA assay, read-out: Max Protection)
Cc1cc2oc(-c3ccc(O)c(O)c3)cc(=O)c2cc1C [CMS-028, 2-(3,4-dihydroxyphenyl)-6,7-dimethyl-4H-chromen-4-one] | 250 nM | 2 fold | no | no | 0.27 | – | – | – | –
COc1cc(-c2cc(=O)c3cc(C)c(C)cc3o2)ccc1OCc1ccccc1 [CMS-058, 2-(4-(benzyloxy)-3-methoxyphenyl)-6,7-dimethyl-4H-chromen-4-one] | 500 nM | – | no | no | 0.09 | – | – | – | –
CCOc1ccc(-c2cc(=O)c3ccc4ccccc4c3o2)cc1OCC [CMS-038, 2-(3,4-diethoxyphenyl)-4H-benzo[h]chromen-4-one] | – | – | no | no | 0.2 | no | – | – | –
COc1cc(-c2cc(=O)c3cc(C)c(C)cc3o2)ccc1O [CMS-064, 2-(4-hydroxy-3-methoxyphenyl)-6,7-dimethyl-4H-chromen-4-one] | 30 nM | – | no | no | 0.12 | – | 34 nM | < 40 nM | –
O=c1c(O)c(-c2ccc(N3CCCC3)cc2)oc2c1ccc1ccccc12 [CMS-114, 3-hydroxy-2-(4-(pyrrolidin-1-yl)phenyl)-4H-benzo[h]chromen-4-one] | 70 nM | – | no | yes | 1.44 | – | – | 71 nM | 74%
O=c1c(O)c(-c2ccc(O)c(O)c2)oc2ccc3ccccc3c12 [CMS-041, 3-(3,4-dihydroxyphenyl)-2-hydroxy-1H-benzo[h]chromen-1-one] | 250 nM | – | no | yes | 1.26 | – | – | – | –
O=c1cc(-c2ccc(N3CCCC3)cc2)oc2c1ccc1ccccc12 [CMS-115, 2-(4-(pyrrolidin-1-yl)phenyl)-4H-benzo[h]chromen-4-one] | 200 nM | – | no | no | 0.03 | – | – | – | –
CCOc1ccc(/C=C/C(=O)c2ccc3ccccc3c2O)cc1OCC [CMS-032, (E)-3-(3,4-diethoxyphenyl)-1-(1-hydroxynaphthalen-2-yl)prop-2-en-1-one] | – | – | no | no | 0.12 | no | – | – | –
CCOc1ccc(/C=C/C(=O)c2cc(C)c(C)cc2O)cc1OCC [CMS-013, (E)-3-(3,4-diethoxyphenyl)-1-(2-hydroxy-4,5-dimethylphenyl)prop-2-en-1-one] | – | – | no | no | 0.09 | no | – | – | –
COc1cc(-c2ccc(N3CCCC3)cc2)nc2ccccc12 [CMS-110, 4-methoxy-2-(4-(pyrrolidin-1-yl)phenyl)quinoline] | – | – | no | no | 0.27 | no | – | – | –
Cc1cc(O)c(C(=O)/C=C/c2ccc(O)cc2O)cc1C [CMS-087, (E)-3-(2,4-dihydroxyphenyl)-1-(2-hydroxy-4,5-dimethylphenyl)prop-2-en-1-one] | 50 nM | – | no | yes | 0.93 | – | – | – | –
CCOc1ccc(-c2cc(OC)c3ccccc3n2)cc1OCC [CMS-004, 4-methoxy-2-(3,4-diethoxyphenyl) quinoline] | – | – | no | no | 0.12 | no | – | – | –
